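Briefly, cells in 96-well plates were exposed to five compound concentrations for 48 h, and endpoints were estimated by linear interpolation. Definition used: TGI = concentration required for complete inhibition of growth.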
Experiments:
Assay in all cases: growth of human tumour cells (NCI), 48 h
[1] = test system: UACC-62 melanoma
[2] = test system: SW-620 colon
[3] = test system: EKVX NSCLC
[4] = test system: NCI-H226 lung
[5] = test system: SNB-19 CNS
[6] = test system: 786-0 renal
[7] = test system: OVCAR-5 ovarian
[8] = test system: HOP-62 NSCLC
[9] = test system: HOP-92 NSCLC
[10] = test system: KM12 colon
[11] = test system: OVCAR-8 ovarian
[12] = test system: SK-MEL-28 melanoma
[13] = test system: MDA-MB-435
[14] = test system: ACHN renal
[15] = test system: SR leukemia
[16] = test system: A498 renal
[17] = test system: MALME-3M melanoma
[18] = test system: NCI-H23 lung
[19] = test system: SF-539 CNS
[20] = test system: HCT-116 colon
[21] = test system: RXF 393 renal
[22] = test system: MDA-MB-231 breast
[23] = test system: IGROV1 ovarian
[24] = test system: OVCAR-4 ovarian
[25] = test system: SK-OV-3 ovarian
[26] = test system: DU-145 prostate
[27] = test system: SK-MEL-5 melanoma
[28] = test system: NCI-H522 lung
[29] = test system: SN12C renal
[30] = test system: TK-10 renal
[31] = test system: NCI/ADR-RES ovarian
[32] = test system: K-562 leukemia
[33] = test system: MOLT-4 leukemia
[34] = test system: SF-268 CNS
[35] = test system: A549 NSCLC
[36] = test system: HL-60(TB) leukemia
[37] = test system: OVCAR-3 ovarian
[38] = test system: U251 CNS
[39] = test system: SK-MEL-2 melanoma
[40] = test system: BT-549 breast
[41] = test system: M14 melanoma
[42] = test system: NCI-H460 lung
[43] = test system: LOX IMVI melanoma
[44] = test system: HCT-15 colon
[45] = test system: HS 578T breast
[46] = test system: SNB-75 CNS
[47] = test system: HT29 colon
[48] = test system: MCF7 breast
[49] = test system: SF-295 CNS
[50] = test system: MDA-N
[51] = test system: CAKI-1 renal
[52] = test system: RPMI-8226 leukemia
[53] = test system: COLO 205 colon
[54] = test system: PC-3 prostate
[55] = test system: T-47D breast
[56] = test system: UACC-257 melanoma
[57] = test system: CCRF-CEM leukemia
[58] = test system: UO-31 renal

Measured: TGI

CN(C)CCNS(=O)(=O)N(C)C
> 100 µM: [1] | [2] | [3] | [4] | [5] | [6] | [7] | [8] | [9] | [10] | [11] | [12] | [13] | [14] | [15] | [16] | [17] | [18] | [19] | [20] | [21] | [22] | [23] | [24] | [25] | [26] | [27] | [28] | [29] | [30] | [31] | [32] | [33] | [34] | [35] | [36] | [37] | [38] | [39] | [40] | [41] | [42] | [43] | [44] | [45] | [46] | [47] | [48] | [49] | [50] | [51] | [52] | [53] | [54] | [55] | [56] | [57]

NC1(P(=O)(O)O)CCCCC1
> 100 µM: [1] | [2] | [3] | [4] | [5] | [6] | [7] | [8] | [9] | [10] | [11] | [12] | [13] | [14] | [15] | [16] | [17] | [18] | [19] | [20] | [21] | [22] | [23] | [24] | [25] | [26] | [27] | [28] | [29] | [30] | [31] | [32] | [33] | [34] | [35] | [36] | [37] | [38] | [39] | [40] | [41] | [42] | [43] | [44] | [45] | [46] | [47] | [48] | [49] | [50] | [51] | [52] | [53] | [54] | [55] | [56] | [57]

Cc1ncc([N+](=O)[O-])n1CCNC(=O)CCC(=O)NCCCn1ccnc1[N+](=O)[O-]
> 100 µM: [1] | [2] | [3] | [4] | [6] | [7] | [8] | [9] | [10] | [11] | [12] | [13] | [14] | [15] | [16] | [17] | [18] | [19] | [20] | [21] | [22] | [23] | [24] | [25] | [26] | [27] | [28] | [29] | [30] | [31] | [32] | [58] | [33] | [34] | [35] | [36] | [37] | [38] | [39] | [40] | [41] | [42] | [43] | [44] | [45] | [46] | [47] | [48] | [49] | [50] | [51] | [52] | [53] | [54] | [55] | [56] | [57]

From PubChem BioAssay (NCI)
